Measurements taken from patent publication US20120004214A1 (priority 2009, published 2012).

Target: α7-subtype of nicotinic receptors (Rattus norvegicus, UniProt Q05941)
Assay: biochemical
Type: binding

α7-subtype of nicotinic receptors, sequence (Q05941 23-502): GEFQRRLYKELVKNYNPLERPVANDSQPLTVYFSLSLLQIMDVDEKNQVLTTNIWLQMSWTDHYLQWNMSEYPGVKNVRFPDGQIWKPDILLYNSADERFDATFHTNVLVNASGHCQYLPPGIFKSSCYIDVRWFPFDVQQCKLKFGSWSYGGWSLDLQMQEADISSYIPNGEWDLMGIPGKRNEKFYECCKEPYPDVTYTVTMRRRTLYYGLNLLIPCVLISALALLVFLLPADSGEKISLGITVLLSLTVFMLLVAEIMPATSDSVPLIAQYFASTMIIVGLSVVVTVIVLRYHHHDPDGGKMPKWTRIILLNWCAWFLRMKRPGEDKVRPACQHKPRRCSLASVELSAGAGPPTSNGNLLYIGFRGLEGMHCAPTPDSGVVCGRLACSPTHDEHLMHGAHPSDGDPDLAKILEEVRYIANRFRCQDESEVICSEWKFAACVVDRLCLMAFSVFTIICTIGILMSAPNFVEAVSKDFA

SMILES: [O-][N+]12CCC(CC1)N(c1ncc(-c3ccc4[nH]ccc4c3)cn1)CC2 [Compound 1, 4-[5-(1H-Indol-5-yl)-pyrimidin-2-yl]-1,4-diaza-bicyclo[3.2.2]nonane 1-oxide]
- IC50: < 0.04 µM
